Key:
[1] = tested on: paclitaxel-induced peripheral nerve disorder rats; assay: Oral administration (suspension or α-CD inclusion complex), hyperalgesia by paclitaxel (von Frey test); type: in vivo, rat; settings: for 50% reaction threshold value, after 5 hours from administration / AUC of 50% reaction threshold value over time, measured value: single dose; for 50% reaction threshold value, before administration: baseline
Description: A suspension ([…]) 5 mL of the compound 4 was mixed with a 1% α-CD aqueous solution followed by stirring overnight to prepare an α-CD inclusion complex of the compound 4.
With regard to male SD rats of six weeks age used as the experimental animals, the rats were organized into the following six groups each comprising 6 rats. • Oral administration group with 0.3 mg/kg of the test drug suspension • Oral administration group with 3 mg/kg of the test drug suspension • Oral administration group with an α-CD inclusion complex containing 0.3 mg/kg of the test drug • Oral administration group with an α-CD inclusion complex containing 3 mg/kg of the test drug • α-CD oral administration group • Intraperitoneal administration group with 0.3 mg/kg of the test drug
Paclitaxel-induced peripheral nerve disorder rats were prepared in the same manner as in the above 1.[1](2). The compound 4 was used as a test drug and, after 39 days from the initiation of the administration of paclitaxel, it was orally administered in a single dose where the dose calculated as a test drug became 0.3 mg/kg or 3 mg/kg to oral administration groups with the test drug suspension or to oral administration groups with an α-CD inclusion complex containing the test drug while, to an intraperitoneal administration group with the test drug, it was intraperitoneally administered in a single dose of 0.3 mg/kg. Further, to an α-CD Oral administration group, an α-CD solution was orally administered in a single dose of 15 mg/kg.
A von Frey test was conducted in the same manner as in the above 1.[1](4) using the rats mentioned in the above (2) and 50% reaction threshold values in each group were measured before initiating the administration of a test drug and after 1, 5 and 24 hours. Further, AUC (area of the part surrounded by a curve and an abscissa axis (a time axis) in a graph showing the 50% reaction threshold value over time from administration of the test drug) was calculated and the relative ratio of each group was calculated where the AUC of the intraperitoneal administration group with 0.3 mg/kg of the test drug was adopted as 100.

[2] = tested on: paclitaxel-induced peripheral nerve disorder rats; assay: Repeated intraperitoneal administration, hyperalgesia by paclitaxel (von Frey test); type: in vivo, rat
Description: With regard to male SD rats of six weeks age used as the experimental animals, their 50% reaction threshold values to the mechanical stimulus (the measuring method will be mentioned later) and body weights were measured and then the following seven groups each comprising eight rats was organized. • Normal control group • Onset control group • Prophylactic administration group with 0.25 mg/kg/day of a test drug • Prophylactic administration group with 0.50 mg/kg/day of a test drug • Therapeutic administration group with 0.25 mg/kg/day of a test drug • Therapeutic administration group with 0.50 mg/kg/day of a test drug • Therapeutic administration group with 30 mg/kg/day of gabapentin (positive control)
Taxol (registered trademark) injection 30 mg (manufactured by Bristol-Myers Squibb) containing 6 mg/mL of paclitaxel was used. To the rats of each of the above groups except the normal control group was intraperitoneally administered paclitaxel diluted to 2 mg/mL with saline in a dose of 2 mg/kg four times every other day whereupon the paclitaxel-induced peripheral nerve disorder rats were prepared. To the normal control group, an equivalent mixture of ethanol and Cremophor EL (registered trademark; manufactured by Sigma; a solvent for Taxisol (registered trademark) injection) diluted with saline to an extent of 3-fold was administered similarly.
To prophylactic administration groups of a test drug, the compound 4 in a dose of 0.25 mg/kg/day or 0.50 mg/kg/day was repeatedly administered intraperitoneally since immediately after initiation of administration of paclitaxel until 13 days thereafter. Meanwhile, to therapeutic administration groups of a test drug and to a therapeutic administration group of gabapentin, the compound 4 in a dose of 0.25 mg/kg/day or 0.50 mg/kg/day or gabapentin in a dose of 30 mg/kg/day, respectively was repeatedly administered intraperitoneally during the period of from 14 days to 42 days after initiation of the administration of paclitaxel.
The seven groups of rats of the above (1) were placed in a transparent acrylic cage with a wire-meshed floor and habituated for about three minutes and the 50% reaction threshold values to the mechanical stimulus of right hind limb were measured after 3, 7, 14, 21, 28, 35 and 42 days from initiation of the administration of paclitaxel. Incidentally, during the period of administration of a test drug, its values were measured after 24 hours from the last administration of a test drug.
The measurement was conducted using von Frey filaments (manufactured by North Coast Medical Inc.) in accordance with the methods of Chaplan, et al. (Journal of Neuroscience Methods, vol. 53, no. 1, pages 55 to 63, 1994) and Dixon, et al. (Annual Review of Pharmacology and Toxicology, vol. 20, pages 441 to 462, 1980). […] The case where the rat escaped at the instance of removing the filament was also called positive. When the positive reaction was noted, stimulus was conducted similarly using a filament of one rank weaker while, when no reaction was noted, stimulus was conducted similarly using a filament of one rank stronger and the point when the reaction changed from negative to positive or from positive to negative was called the first two reactions. […] A 50% reaction threshold value to the mechanical stimulus was measured using the reaction to the six stimuli in total and then (mean value) ± (standard error) for each group was calculated. […]

[3] = oral 0.3 mg/kg, test drug suspension
[4] = oral 3 mg/kg, test drug suspension

With CCCCCCC/C=C/C(=O)OCC [Compound 4, Trans-2-decenoic acid ethyl ester] the “50% reaction threshold value, after 5 hours from administration” value ([1]; intraperitoneal 0.3 mg/kg) was 8.57, the “AUC of 50% reaction threshold value over time, measured value” (shortened to “AUC of 50% reaction threshold value”) ([1]; intraperitoneal 0.3 mg/kg) was 74.59 and the “50% reaction threshold value, before administration” value ([1]; intraperitoneal 0.3 mg/kg) was 4.58. The AUC relative ratio ([1]; intraperitoneal 0.3 mg/kg, this group adopted as 100) was 100, the “50% reaction threshold value, after 5 hours from administration” value [1, 3] was 6.00 and the “AUC of 50% reaction threshold value” [1, 3] was 31.83. For the same molecule, the AUC relative ratio ([1]; oral 0.3 mg/kg, test drug suspension, AUC of i.p. 0.3 mg/kg group = 100) was 43, the “50% reaction threshold value, before administration” value [1, 3] was 4.57 and the “50% reaction threshold value, after 5 hours from administration” value [1, 4] was 8.66. The “AUC of 50% reaction threshold value” [1, 4] was 54.99, the AUC relative ratio ([1]; oral 3 mg/kg, test drug suspension, AUC of i.p. 0.3 mg/kg group = 100) was 74 and the “50% reaction threshold value, before administration” value [1, 4] was 4.57. For the same molecule, the “effect of suppressing the hyperalgesia after completion of the repeated administration” value ([2]; paclitaxel model, repeated i.p. 0.25 or 0.50 mg/kg/day) was “still continued”, the “50% reaction threshold values to the mechanical stimulus vs onset control group” value (“50% reaction threshold values” for short) ([2]; prophylactic i.p. 0.5 mg/kg/day until 13 days, from 14 days to 28 days after initiation of paclitaxel, male SD rats) was “significantly high” and the “50% reaction threshold values” value ([2]; therapeutic i.p. 0.25 mg/kg/day (days 14-42), from 21 days to 35 days after paclitaxel) was “significantly high”. For the same molecule, the “50% reaction threshold values” value ([2]; therapeutic i.p. 0.5 mg/kg/day (days 14-42), after 28 days from paclitaxel) was “significantly high”.
